Where two headings read alike, the source gives them in different places.
Legend:
[1] = tested on: MV-4-11; assay: Cell proliferation assay (MTS/PMS); type: cell-based; conditions: Homo sapiens, MV4-11
[2] = molecular target: T1, SHP2 (Homo sapiens, UniProt Q06124); assay: biochemical; conditions: read-out: SHP2 inhibition (%)@0.1 μM;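 further: compounds preincubated 30 min at room temperature in the assay mixture, activity referenced to a 0.5% (v/v) DMSO control taken as 100%, run in triplicate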
T1 sequence (Q06124 1-593): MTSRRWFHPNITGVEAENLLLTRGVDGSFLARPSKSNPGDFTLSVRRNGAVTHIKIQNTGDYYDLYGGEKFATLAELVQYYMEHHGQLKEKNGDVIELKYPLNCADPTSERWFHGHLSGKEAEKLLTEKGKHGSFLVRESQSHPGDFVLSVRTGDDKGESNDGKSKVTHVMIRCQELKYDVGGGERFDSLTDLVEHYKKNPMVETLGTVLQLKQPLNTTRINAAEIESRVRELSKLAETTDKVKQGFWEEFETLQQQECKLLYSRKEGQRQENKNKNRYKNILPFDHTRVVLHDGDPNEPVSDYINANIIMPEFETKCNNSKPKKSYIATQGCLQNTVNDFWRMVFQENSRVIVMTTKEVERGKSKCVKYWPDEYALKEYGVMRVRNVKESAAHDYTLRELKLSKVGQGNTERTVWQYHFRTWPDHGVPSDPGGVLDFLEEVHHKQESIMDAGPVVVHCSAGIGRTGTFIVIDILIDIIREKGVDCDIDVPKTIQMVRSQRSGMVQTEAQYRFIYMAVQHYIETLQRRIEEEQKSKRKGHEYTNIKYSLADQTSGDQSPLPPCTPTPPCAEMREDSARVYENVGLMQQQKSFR

[3] = MV-4-11 cell proliferation, MTS/PMS readout at day 8, compounds added 24 hours after plating, read-out: IC50

Compound	IC50 [1, 3] [nM]	inhibition at 0.1 µM [2] [%]	IC50 [1] [nM]
COc1cccc2c1CC1(CCN(c3cnc(Sc4ccnc(N)c4Cl)c(N)n3)CC1)[C@@H]2N [Example 14, (S)-1′-(6-amino-5-((2-amino-3-chloropyridin-4-yl)thio)pyrazin-2-yl)-4-methoxy-1,3-dihydrospiro[2,4′-piperidin]-1-amine]	6	82	
Nc1nc(N2CCC3(CC2)Oc2ccccc2[C@H]3N)cnc1Sc1ccnc(N)c1Cl [Example 45, (R)-1′-(6-amino-5-((2-amino-3-chloropyridin-4-yl)thio)pyrazin-2-yl)-3H-spiro[benzofuran-2,4′-piperidin]-3-amine]		68	2.5
Nc1nccc(Sc2cnc(N3CCC4(CC3)Oc3ccccc3[C@H]4N)cn2)c1Cl [Example 56, (R)-1′-(5-((2-amino-3-chloropyridin-4-yl)thio)pyrazin-2-yl)-3H-spiro[benzofuran-2,4′-piperidin]-3-amine]	10.4	71	
Nc1nc(N2CCC3(CC2)Cc2nc4ccccc4cc2[C@H]3N)cnc1Sc1ccnc(N)c1Cl [Example 64, (S)-1′-(6-amino-5-((2-amino-3-chloropyridin-4-yl)thio)pyrazin-2-yl)-1,3-dihydrospiro[cyclopenta [b]quinoline-2, 4′-piperidin]-1-amine]	8.1	66	
Nc1nccc(Sc2cnc(N3CCC4(CC3)Cc3nc(Cl)sc3[C@H]4N)cn2)c1Cl [Example 68, (S)-1′-(5-((2-amino-3-chloropyridin-4-yl)thio)pyrazin-2-yl)-2-chloro-4,6-dihydrospiro[cyclopenta [d]thiazole-5,4′-piperidin]-amine]	4.9	82	
Nc1nc(N2CCC3(CC2)Cc2ncccc2[C@H]3N)cnc1Sc1ccnc(Cl)c1Cl [Example 105, (S)-1′-(6-amino-5-((2,3-dichloro-pyridin-4-yl)thio)pyrazin-2-yl)-5,7-dihydrospiro[cyclo-penta[b]pyridine-6,4′-piperidin]-5-amine]	11		
Nc1nccc(Sc2cnc(N3CCC4(CC3)c3ccccc3CC4N)cn2)c1Cl (stereo not shown) [Example 132, 1′-(5-((2-amino-3-chloropyridin-4-yl)thio)pyrazin-2-yl)-2,3-dihydrospiro[indene-1,4′-piperidin]-2-amine]		78	
N[C@@H]1c2ccccc2CC12CCN(c1cnc(Sc3ccnc(O)c3Cl)cn1)CC2 [Example 133, (S)-4-((5-(1-amino-1,3-dihydrospiro[indene-2,4′-piperidin]-1′-yl)pyrazin-2-yl)thio)-3-chloro pyridin-2-ol]		76	
Nc1nc(N2CCC3(CC2)Cc2ccccc2[C@H]3N)cnc1Sc1ccnc(O)c1Cl [Example 134, (S)-4-((3-amino-5-(1-amino-1,3-dihydrospiro[indene-2,4′-piperidin]-1′-yl)pyrazin-2-yl)thio)-3-chloropyridin-2-ol]		78	
N[C@@H]1c2cccnc2CC12CCN(c1cnc(Sc3ccnc(O)c3Cl)cn1)CC2 [Example 135, (S)-4-((5-(5-amino-5,7-dihydrospiro [cyclopenta[b]pyridine-6,4′-piperidin]-1′-yl)pyrazin-2-yl)thio)-3-chloropyridin-2-ol]		86	
Nc1nc(N2CCC3(CC2)Cc2ncccc2[C@H]3N)cnc1Sc1ccnc(O)c1Cl [Example 136, (S)-4-((3-amino-5-(5-amino-5,7-dihydrospiro[cyclopenta[b]pyridine-6,4′-piperidin]-1′-yl)pyrazin-2-yl)thio)-3-chloropyridin-2-ol]		83	
Nc1nc(N2CCC3(CC2)Cc2c(O)cccc2[C@H]3N)cnc1Sc1ccnc(N)c1Cl [Example 138, (S)-1-amino-1′-(6-amino-5-((2-amino-3-chloropyridin-4-yl)thio)pyrazin-2-yl)-1,3-dihydrospiro[indene-2,4′-piperidin]-4-ol]		82	
Nc1nc(N2CCC3(CC2)Cn2ccc(=O)cc2C3N)cnc1Sc1ccnc(N)c1Cl (stereo not shown) [Example 140, 1-amino-1′-(6-amino-5-((2-amino-3-chloropyridin-4-yl)thio)pyrazin-2-yl)-3H-spiro[indolizine-2,4′-piperidin]-7(1H)-one]		14	
Nc1nc(N2CCC3(CC2)Cn2c(cccc2=O)C3N)cnc1Sc1ccnc(N)c1Cl (stereo not shown) [Example 141, 1-amino-1′-(6-amino-5-((2-amino-3-chloropyridin-4-yl)thio)pyrazin-2-yl)-3H-spiro[indolizine-2,4′-piperidin]-5(1H)-one]		41	
N=C1c2ccccc2CC12CCN(c1cnc(Sc3ccnc(N)c3Cl)c(N)n1)CC2 [Example 142, 3-((2-amino-3-chloropyridin-4-yl)thio)-6-(1-imino-1,3-dihydrospiro[indene-2,4′-piperidin]-1′-yl)pyrazin-2-amine]		17	
COc1ccc2c(c1)CC1(CCN(c3cnc(Sc4ccnc(N)c4Cl)c(N)n3)CC1)C2=N [Example 143, 3-((2-amino-3-chloropyridin-4-yl)thio)-6-(1-imino-5-methoxy-1,3-dihydro-spiro[indene-2,4′-piperidin]-1′-yl)pyrazin-2-amine]		72	
N=C1c2csc(Br)c2CC12CCN(c1cnc(Sc3ccnc(N)c3Cl)c(N)n1)CC2 [Example 145, 3-((2-amino-3-chloropyridin-4-yl)thio)-6-(1-bromo-4-imino-4H,6H-spiro [cyclopenta[c]thiophene-5,4′-piperidin]-1′-yl)pyrazin-2-amine]		79	
COc1cccc2c1C(N)C1(CCN(c3cnc(Sc4ccnc(N)c4Cl)c(N)n3)CC1)C2 (stereo not shown) [Example 148, 1′-(6-amino-5-((2-amino-3-chloropyridin-4-yl)thio)pyrazin-2-yl)-7-methoxy-1,3-dihydrospiro[indene-2,4′-piperidin]-1-amine]		72	
Nc1nc(N2CCC3(CC2)Cc2ccccc2/C3=N\O)cnc1Sc1ccnc(N)c1Cl [Example 149, (Z)-1′-(6-amino-5-((2-amino-3-chloropyridin-4-yl)thio)pyrazin-2-yl) spiro[indene-2,4′-piperidin]-1(3H)-one oxime]		28	
Nc1nccc(Sc2cnc(N3CCC4(CC3)Cc3scnc3C4N)cn2)c1Cl (stereo not shown) [Example 154, 1′-(5-((2-amino-3-chloropyridin-4-yl)thio)pyrazin-2-yl)-4,6-dihydrospiro[cyclopenta[d]thiazole-5,4′-piperidin]-4-amine]		82	
Nc1nc(N2CCC3(CC2)Cc2ccccc2[C@H]3N)cnc1Sc1cccc2[nH]cc(F)c12 [Example 157, (S)-1′-(6-amino-5-((3-fluoro-1H-indol-4-yl)thio)pyrazin-2-yl)-1,3-dihydrospiro[indene-2,4′-piperidin]-1-amine]		78	
CC(=O)c1ccc2c(c1)[C@@H](N)C1(CCN(c3cnc(Sc4ccnc(N)c4Cl)c(N)n3)CC1)C2 [Example 158, (S)-1-(1-amino-1′-(6-amino-5-((2-amino-3-chloropyridin-4-yl)thio)pyrazin-2-yl)-1,3-dihydrospiro[indene-2,4′-piperidin]-6-yl)ethan-1-one]		90	
CC(=O)c1cccc2c1CC1(CCN(c3cnc(Sc4ccnc(N)c4Cl)c(N)n3)CC1)[C@@H]2N [Example 159, (S)-1-(1-amino-1′-(6-amino-5-((2-amino-3-chloropyridin-4-yl)thio)pyrazin-2-yl)-1,3-dihydrospiro[indene-2,4′-piperidin]-4-yl)ethan-1-one]		88	

— patent publication US10988466B2, “Heterocyclic derivatives useful as SHP2 inhibitors” (Jacobio Pharmaceuticals Co., Ltd., priority 2017, dated 2021)
